{
  "source": "patent US10071968B2",
  "about": "(priority 2014, dated 2018)",
  "data": [
    {"target": "human σ1 receptor (Homo sapiens, UniProt Q99720)", "sequence (Q99720 whole entry)": "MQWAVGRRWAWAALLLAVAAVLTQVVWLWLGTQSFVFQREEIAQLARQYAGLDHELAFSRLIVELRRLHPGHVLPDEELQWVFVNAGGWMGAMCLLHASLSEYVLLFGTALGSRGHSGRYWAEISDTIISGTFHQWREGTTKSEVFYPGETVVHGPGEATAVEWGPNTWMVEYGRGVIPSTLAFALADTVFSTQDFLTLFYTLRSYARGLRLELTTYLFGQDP", "assay": "Human σ1 receptor radioligand assay ([3H](+)-pentazocine, transfected HEK-293 membranes)", "type": "binding", "set-up": "μ and σ1 dual binding: key to the marks not given beside the values", "settings": "one combined class for Ki-σ1 (A1) and Ki-μ (human μ-opioid receptor, A2)", "procedure": "(§1) To investigate binding properties of test compounds to human σ1 receptor, transfected HEK-293 membranes and [^3H](+)-pentazocine (Perkin Elmer, NET-1056), as the radioligand, were used. The assay was carried out with 7 μg of membrane suspension, 5 nM of [^3H](+)-pentazocine in either absence or presence of either buffer or 10 μM Haloperidol for total and non-specific binding, respectively. Binding buffer contained Tris-HCl 50 mM at pH 8. Plates were incubated at 37° C. for 120 minutes. After the incubation period, the reaction mix was then transferred to MultiScreen HTS, FC plates (Millipore), filtered and plates were washed 3 times with ice-cold 10 mM Tris-HCL (pH7.4). Filters were dried and counted at approximately 40% efficiency in a MicroBeta scintillation counter (Perkin-Elmer) using EcoScint liquid scintillation cocktail", "values": [
      {"compound": "CN(CCO[C@H](c1ccccc1)c1ccnn1C)CCc1ccccc1", "note": "[Example 11, (R)-N-methyl-2-((1-methyl-1H-pyrazol-5-yl)(phenyl)methoxy)-N-phenethylethanamine]", "μ and σ1 dual binding": "++"},
      {"compound": "CC(C)N(CCOC(c1ccccc1)c1ccnn1C)Cc1ccccc1", "note": "(stereo not shown) [Example 27, N-benzyl-N-(2-((1-methyl-1H-pyrazol-5-yl)(phenyl)methoxy)ethyl)propan-2-amine]", "μ and σ1 dual binding": "++"},
      {"compound": "CN(CCO[C@H](c1ccccc1)c1ccnn1C)Cc1ccccc1", "note": "[Example 9, (R)-N-benzyl-N-methyl-2-((1-methyl-1H-pyrazol-5-yl)(phenyl)methoxy)ethanamine]", "μ and σ1 dual binding": "++"},
      {"compound": "CN(CCOC(c1cncs1)c1ccnn1C)Cc1cccc(F)c1", "note": "(stereo not shown) [Example 49, N-(3-fluorobenzyl)-N-methyl-2-((1-methyl-1H-pyrazol-5-yl)(thiazol-5-yl)methoxy)ethanamine]", "μ and σ1 dual binding": "++"},
      {"compound": "COc1ccccc1C(OCCN(C)Cc1cccc(F)c1)c1ccnn1C", "note": "(stereo not shown) [Example 48, N-(3-fluorobenzyl)-2-((2-methoxyphenyl)(1-methyl-1H-pyrazol-5-yl)methoxy)-N-methylethanamine]", "μ and σ1 dual binding": "++"},
      {"compound": "COc1cccc(CN(C)CCOC(c2ccccc2)c2ccnn2C)c1", "note": "(stereo not shown) [Example 23, N-(3-methoxybenzyl)-N-methyl-2-((1-methyl-1H-pyrazol-5-yl)(phenyl)methoxy)ethanamine]", "μ and σ1 dual binding": "++"},
      {"compound": "CN(CCOC(c1cccnc1)c1ccnn1C)Cc1cccc(F)c1", "note": "(stereo not shown) [Example 46, N-(3-fluorobenzyl)-N-methyl-2-((1-methyl-1H-pyrazol-5-yl)(pyridin-3-yl)methoxy)ethanamine]", "μ and σ1 dual binding": "++"},
      {"compound": "CN(CCOC(c1ccccc1)c1ccnn1C)Cc1ccc(F)cc1", "note": "(stereo not shown) [Example 8, N-(4-fluorobenzyl)-N-methyl-2-((1-methyl-1H-pyrazol-5-yl)(phenyl)methoxy)ethanamine]", "μ and σ1 dual binding": "++"},
      {"compound": "CN(CCO[C@H](c1ccccc1)c1ccnn1C)Cc1ccc(F)cc1", "note": "[Example 10, (R)-N-(4-fluorobenzyl)-N-methyl-2-((1-methyl-1H-pyrazol-5-yl)(phenyl)methoxy)ethanamine]", "μ and σ1 dual binding": "++"},
      {"compound": "CC(C)N(CCOC(c1ccccc1)c1ccnn1C)Cc1cccc(F)c1", "note": "(stereo not shown) [Example 29, N-(3-fluorobenzyl)-N-(2-((1-methyl-1H-pyrazol-5-yl)(phenyl)methoxy)ethyl)propan-2-amine]", "μ and σ1 dual binding": "++"},
      {"compound": "CC(c1ccccc1)N(C)CCOC(c1ccccc1)c1ccnn1C", "note": "(stereo not shown) [Example 16, N-methyl-2-((1-methyl-1H-pyrazol-5-yl)(phenyl)methoxy)-N-(1-phenylethyl)ethanamine]", "μ and σ1 dual binding": "++"},
      {"compound": "CN(CCOC(c1ccc(O)cc1)c1ccnn1C)Cc1ccccc1", "note": "(stereo not shown) [Example 51, 4-((2-(benzyl(methyl)amino)ethoxy)(1-methyl-1H-pyrazol-5-yl)methyl)phenol]", "μ and σ1 dual binding": "++"},
      {"compound": "Cc1ccsc1[C@@H](OCCN(C)Cc1ccccc1)c1ccnn1C", "note": "[Example 30, (S)-N-benzyl-N-methyl-2-((1-methyl-1H-pyrazol-5-yl)(3-methylthiophen-2-yl)methoxy)ethanamine]", "μ and σ1 dual binding": "++"},
      {"compound": "COc1ccccc1C(OCCN(C)Cc1ccccc1)c1ccnn1C", "note": "(stereo not shown) [Example 39, N-benzyl-2-((2-methoxyphenyl)(1-methyl-1H-pyrazol-5-yl)methoxy)-N-methylethanamine]", "μ and σ1 dual binding": "++"}
    ]},
    {"target": "human σ1 receptor (Homo sapiens, UniProt Q99720)", "assay": "Human σ1 receptor radioligand assay ([3H](+)-pentazocine, transfected HEK-293 membranes)", "type": "binding", "set-up": "μ and σ1 dual binding: key to the marks not given beside the values", "settings": "one combined class for Ki-σ1 (A1) and Ki-μ (human μ-opioid receptor, A2); read-out: μ and σ1 dual binding", "procedure": "as §1", "units": {"Ki": "nM"}, "values": [
      {"compound": "CN(CCOC(c1cncs1)c1ccnn1C)Cc1ccccc1", "note": "(stereo not shown) [Example 41, N-benzyl-N-methyl-2-((1-methyl-1H-pyrazol-5-yl)(thiazol-5-yl)methoxy)ethanamine]", "Ki": "> 500"},
      {"compound": "CN(CCOC(c1ccccn1)c1ccnn1C)Cc1ccccc1", "note": "(stereo not shown) [Example 40, N-benzyl-N-methyl-2-((1-methyl-1H-pyrazol-5-yl)(pyridin-2-yl)methoxy)ethanamine]", "Ki": "> 500"},
      {"compound": "CN(CC[S+]([O-])C(c1ccccc1)c1ccnn1C)Cc1ccccc1", "note": "(stereo not shown) [Example 34, N-Benzyl-N-methyl-2-((1-methyl-1H-pyrazol-5-yl)(phenyl)methylsulfinyl)ethanamine]", "Ki": "> 500"},
      {"compound": "CN(CCOC(c1ccccc1)c1ccnn1C)CCc1ccccc1", "note": "(stereo not shown) [Example 7, N-methyl-2-((1-methyl-1H-pyrazol-5-yl)(phenyl)methoxy)-N-phenethylethanamine]", "Ki": "< 500"},
      {"compound": "CN(CCSC(c1ccccc1)c1ccnn1C)Cc1ccccc1", "note": "(stereo not shown) [Example 33, N-benzyl-N-methyl-2-((1-methyl-1H-pyrazol-5-yl)(phenyl)methylthio)ethanamine]", "Ki": "< 500"},
      {"compound": "CN(CCOC(c1ccccc1)c1ccnn1C)Cc1ccc(C(F)(F)F)nc1", "note": "(stereo not shown) [Example 3, N-methyl-2-((1-methyl-1H-pyrazol-5-yl)(phenyl)methoxy)-N-((6-(trifluoromethyl)pyridin-3-yl)methyl)ethanamine]", "Ki": "> 500"},
      {"compound": "CN(CCO[C@@H](c1ccccc1)c1ccnn1C)CCc1ccccc1", "note": "[Example 19, (S)-N-methyl-2-((1-methyl-1H-pyrazol-5-yl)(phenyl)methoxy)-N-phenethylethanamine]", "Ki": "< 500"},
      {"compound": "CN(CCOC(c1ccccc1O)c1ccnn1C)Cc1ccccc1", "note": "(stereo not shown) [Example 52, 2-((2-(benzyl(methyl)amino)ethoxy)(1-methyl-1H-pyrazol-5-yl)methyl)phenol]", "Ki": "< 500"}
    ]}
  ]
}
